Laboratory results: PMC8587465, “Naturally Available Flavonoid Aglycones as Potential Antiviral Drug Candidates against SARS-CoV-2” (Molecules, 2021)
≈ marks a conversion by molar mass, not a printed value. Read-outs that look alike come from different tables or passages of the source.

What was measured:
[1] = tested on: SARS-CoV-2 "NRC-03-nhCoV" virus; assay: In vitro anti-SARS-CoV-2 activity, IC50 by reduction of virus-induced cytopathic effect in Vero-E6 cells; assay type: cell-based; settings: read-out: inhibitory concentration 50% (IC50) against NRC-03-nhCoV
[2] = Cytotoxicity (CC50) determination, crystal violet assay; assay type: cell-based; settings: African green monkey
Procedure: To assess the half-maximal cytotoxic concentration (CC50), stock solutions of the compounds were prepared in 10% DMSO in ddH2O and diluted further to the working solutions with DMEM. The cytotoxic activity of the extracts was tested in VERO-E6 cells by using a crystal violet assay, as previously described with minor modifications. Briefly, the cells were seeded in 96 well-plates (100 µL/well at a density of 3 × 10^5 cells/mL) and incubated for 24 h at 37 °C in 5% CO2. Control cells were treated with 1% DMSO in DMEM (the concentration of DMSO in the highest concentration of the tested samples). After 24 h, the cells were treated with various concentrations of the compounds in triplicates. After 72 h, the supernatant was discarded, and the cell monolayers were fixed with 10% formaldehyde for 1 h at room temperature (RT). The fixed monolayers were, then, dried and stained with 50 µL of 0.1% crystal violet for 20 min on a bench rocker at RT. The monolayers were, then, washed and dried, and the crystal violet dye in each well was dissolved with 200 µL methanol for 20 min on a bench rocker at RT. […]
All experiments were performed in three biological repeats. […] The IC50 and CC50 curves represent the nonlinear fit of “normalize” of “transform” of the obtained data; their values were calculated using GraphPad prism as “best fit value”.

[3] = tested on: SARS-CoV-2 Mpro; settings: stated in the abstract for the reference standard; method and reference not given; cited from earlier work
[4] = Severe acute respiratory syndrome coronavirus 2, Vero C1008, 72 h

COc1ccc(-c2cc(=O)c3c(O)c(OC)c(O)cc3o2)cc1 [Compound 2, Pectolinarigenin]
IC50 [1, 4]: 12.4 µg/mL (≈ 39.5 µM)

COc1ccc(-c2cc(=O)c3c(OC)c(OC)c(OC)c(OC)c3o2)cc1 [Compound 3, Tangeretin]
IC50 [1, 4]: 2.5 µg/mL (≈ 6.71 µM)

COc1ccc(-c2cc(=O)c3c(O)c(OC)c(OC)c(OC)c3o2)cc1 [Compound 4, Gardenin B]
CC50 at 72 h [2]: 14100 µg/mL (≈ 39400 µM) | IC50 ([1]; Severe acute respiratory syndrome coronavirus 2, Vero C1008, Vero-E6 cells, 100 TCID50, 72 h, CPE reduction): 128 µg/mL (≈ 357 µM)

COc1c(O)cc2oc(-c3ccc(O)cc3)cc(=O)c2c1O [Compound 5, Hispidulin]
CC50 at 72 h ([2]; Vero E6 cells, 72 h, crystal violet, read-out: half-maximal cytotoxic concentration (CC50)): 14100 µg/mL (≈ 47100 µM) | IC50 [1, 4]: 883 µg/mL (≈ 2940 µM)

CC(C)(C)OC(=O)Nc1cccn(C(CC2CC2)C(=O)NC(CC2CCNC2=O)C(=O)C(=O)NCc2ccccc2)c1=O (stereo not shown) [KI]
IC50 [3]: 66.72 µg/mL (≈ 112 µM)
